From article PMC7462985, “Inhibitors of BRAF dimers using an allosteric site” (Nature Communications, 2020)
Blank lines part the entries; values can stand above or below the compound they belong to.

Key:
BRAF^V600E = BRAF^V600E (Homo sapiens, UniProt P15056, V600E); assay: SelectScreen Z'-LYTE kinase activity assay; assay type: biochemical; parameters: purchased Invitrogen (SelectScreen service); conditions: 100 μM ATP
Experimental: (§2) BRAF kinase assays were performed using the Z’-LYTE™ enzymatic assay (Invitrogen, USA). […] Titrations were performed using a 1:3 dilution. Assays were performed using SelectScreen (Invitrogen).

KIT = KIT (Homo sapiens, UniProt P10721); assay: SelectScreen kinase activity assay; assay type: biochemical; parameters: purchased Invitrogen (SelectScreen service); conditions: 100 μM ATP
KIT, sequence (P10721 26-976): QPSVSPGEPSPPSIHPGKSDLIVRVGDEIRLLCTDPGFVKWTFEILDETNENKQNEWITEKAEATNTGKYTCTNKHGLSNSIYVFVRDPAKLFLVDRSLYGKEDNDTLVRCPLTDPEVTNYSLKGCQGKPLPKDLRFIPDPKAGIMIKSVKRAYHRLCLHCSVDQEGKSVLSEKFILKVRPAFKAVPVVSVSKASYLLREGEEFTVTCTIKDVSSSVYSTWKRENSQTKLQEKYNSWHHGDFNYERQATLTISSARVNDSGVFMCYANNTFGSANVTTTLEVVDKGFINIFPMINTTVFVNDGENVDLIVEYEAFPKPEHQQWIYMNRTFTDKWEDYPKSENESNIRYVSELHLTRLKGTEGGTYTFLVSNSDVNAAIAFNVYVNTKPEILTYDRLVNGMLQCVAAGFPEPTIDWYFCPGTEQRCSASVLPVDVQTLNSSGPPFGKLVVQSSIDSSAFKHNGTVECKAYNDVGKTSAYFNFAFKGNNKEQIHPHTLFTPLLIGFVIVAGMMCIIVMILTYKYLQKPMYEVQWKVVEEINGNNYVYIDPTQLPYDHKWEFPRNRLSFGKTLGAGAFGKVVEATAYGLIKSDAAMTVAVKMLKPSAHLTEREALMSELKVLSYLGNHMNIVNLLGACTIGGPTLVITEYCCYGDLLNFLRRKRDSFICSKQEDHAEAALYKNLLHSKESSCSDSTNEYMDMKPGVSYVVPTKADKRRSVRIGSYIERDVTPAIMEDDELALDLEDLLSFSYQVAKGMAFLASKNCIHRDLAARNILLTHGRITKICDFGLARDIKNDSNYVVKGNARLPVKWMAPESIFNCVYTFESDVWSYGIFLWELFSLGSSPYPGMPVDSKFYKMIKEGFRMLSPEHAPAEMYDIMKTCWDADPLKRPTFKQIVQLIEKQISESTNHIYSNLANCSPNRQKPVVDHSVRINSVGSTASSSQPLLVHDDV
Experimental: as §2

ACVR1B = biological target: T1, ACVR1B (Homo sapiens, UniProt P36896); assay: KINOMEscan scanEDGE binding; conditions: KinomeEDGE scan, compound at 1 μΜ
T1 construct: purchased Eurofins/DiscoverX KINOMEscan (scanEDGE panel)

FLT3 = biological target: T2, FLT3 (Homo sapiens, UniProt P36888); assay: SelectScreen kinase activity assay; assay type: biochemical; parameters: purchased Invitrogen (SelectScreen service); conditions: PHI1 versus Ponatinib
T2 sequence (P36888 27-993): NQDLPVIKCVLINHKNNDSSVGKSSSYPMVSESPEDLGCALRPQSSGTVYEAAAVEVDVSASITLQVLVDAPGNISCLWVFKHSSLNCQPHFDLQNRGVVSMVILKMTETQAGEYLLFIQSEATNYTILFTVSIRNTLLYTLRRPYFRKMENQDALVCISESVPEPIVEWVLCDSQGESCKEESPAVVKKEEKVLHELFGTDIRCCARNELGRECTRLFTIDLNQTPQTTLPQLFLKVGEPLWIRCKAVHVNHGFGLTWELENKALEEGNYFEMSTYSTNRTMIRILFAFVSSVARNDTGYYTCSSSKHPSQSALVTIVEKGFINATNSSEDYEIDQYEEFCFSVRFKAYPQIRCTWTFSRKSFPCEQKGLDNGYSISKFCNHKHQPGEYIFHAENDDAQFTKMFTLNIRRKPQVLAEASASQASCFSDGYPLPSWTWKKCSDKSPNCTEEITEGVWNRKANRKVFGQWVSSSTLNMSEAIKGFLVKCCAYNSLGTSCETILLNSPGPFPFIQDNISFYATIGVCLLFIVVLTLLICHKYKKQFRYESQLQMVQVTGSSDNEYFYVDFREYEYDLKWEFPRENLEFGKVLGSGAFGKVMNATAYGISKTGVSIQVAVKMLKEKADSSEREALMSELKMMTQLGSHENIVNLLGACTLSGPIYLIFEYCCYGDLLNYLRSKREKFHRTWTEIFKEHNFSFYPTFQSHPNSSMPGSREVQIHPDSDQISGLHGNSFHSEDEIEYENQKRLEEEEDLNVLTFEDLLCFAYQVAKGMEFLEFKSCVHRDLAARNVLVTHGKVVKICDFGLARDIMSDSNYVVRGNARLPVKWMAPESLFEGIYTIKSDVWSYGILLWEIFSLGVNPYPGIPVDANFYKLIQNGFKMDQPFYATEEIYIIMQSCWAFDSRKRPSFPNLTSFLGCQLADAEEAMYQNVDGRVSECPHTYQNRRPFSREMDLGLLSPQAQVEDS
Experimental: as §2

PDFGRα = biological target: T3, PDFGRα (Homo sapiens, UniProt P16234); assay: SelectScreen kinase activity assay; assay type: biochemical; conditions: 100 μM ATP
T3 construct: purchased Invitrogen (SelectScreen service)
Experimental: as §2

[1] = test system: HEK293H cells expressing p61BRAF^V600E; assay: p-ERK inhibition in transfected HEK293H cells; assay type: cell-based; conditions: HEK293-H, 1 μM lapatinib pre-treatment 1 h, PHI1 1 h, read-out: IC50 of pERK inhibition
Experimental: (§1) HEK239H cells were seeded in 6-well plates (1 × 10^6 cells per well) and transfected the following day using Lipofectamine 3000 (Invitrogen L3000008) according to the manufacturer’s instructions. 2 μg of p61BRAF^V600E plasmid (pcDNA-3 vector) DNA per well was employed. […] ERK signaling and BRAF^V600E expression was assessed by western blot. […] In addition, HEK239H cells seeded in 6-well plates (1 × 10^6 cells per well) were transfected with Lipofectamine 3000 containing 2 μg of p61BRAF^V600E plasmid or 2 μg of p61BRAF^V600ER509H plasmid (pcDNA-3 vector) DNA per well. 24 h after transfection cells were treated with DMSO or increasing concentrations of PHI1 for 1 h and ERK signaling, and BRAF expression was assessed by western blot.

[2] = test system: HEK293H cells expressing p61BRAF^V600E/R509H; assay: p-ERK inhibition in transfected HEK293H cells; assay type: cell-based; conditions: HEK293-H, 1 μM lapatinib pre-treatment 1 h, PHI1 1 h, read-out: IC50 of pERK inhibition
Experimental: as §1

[3] = biological target: T4, ABL1(T315I)-phosphorylated (Homo sapiens, UniProt P00519, T315I); assay: KINOMEscan scanEDGE binding; conditions: KinomeEDGE scan, compound at 1 μΜ
T4 construct: purchased Eurofins/DiscoverX KINOMEscan (scanEDGE panel)

ABL1 = biological target: T5, ABL1 (Homo sapiens, UniProt P00519); assay: SelectScreen kinase activity assay; assay type: biochemical; conditions: 100 μM ATP
T5 construct: purchased Invitrogen (SelectScreen service)
Experimental: as §2

[4] = biological target: T6, JAK2(JH1domain-catalytic) (Homo sapiens, UniProt O60674); assay: KINOMEscan scanEDGE binding; conditions: KinomeEDGE scan, compound at 1 μΜ
T6 construct: JAK2(JH1domain-catalytic); purchased Eurofins/DiscoverX KINOMEscan (scanEDGE panel)

EGFR(L858R) = biological target: T7, EGFR(L858R) (Homo sapiens, UniProt P00533, L858R); assay: KINOMEscan scanEDGE binding; conditions: KinomeEDGE scan, compound at 1 μΜ
T7 construct: purchased Eurofins/DiscoverX KINOMEscan (scanEDGE panel)

AXL = biological target: T8, AXL (Homo sapiens, UniProt P30530); assay: KINOMEscan scanEDGE binding; conditions: KinomeEDGE scan, compound at 1 μΜ
T8 construct: purchased Eurofins/DiscoverX KINOMEscan (scanEDGE panel)
T8 sequence (P30530 26-894): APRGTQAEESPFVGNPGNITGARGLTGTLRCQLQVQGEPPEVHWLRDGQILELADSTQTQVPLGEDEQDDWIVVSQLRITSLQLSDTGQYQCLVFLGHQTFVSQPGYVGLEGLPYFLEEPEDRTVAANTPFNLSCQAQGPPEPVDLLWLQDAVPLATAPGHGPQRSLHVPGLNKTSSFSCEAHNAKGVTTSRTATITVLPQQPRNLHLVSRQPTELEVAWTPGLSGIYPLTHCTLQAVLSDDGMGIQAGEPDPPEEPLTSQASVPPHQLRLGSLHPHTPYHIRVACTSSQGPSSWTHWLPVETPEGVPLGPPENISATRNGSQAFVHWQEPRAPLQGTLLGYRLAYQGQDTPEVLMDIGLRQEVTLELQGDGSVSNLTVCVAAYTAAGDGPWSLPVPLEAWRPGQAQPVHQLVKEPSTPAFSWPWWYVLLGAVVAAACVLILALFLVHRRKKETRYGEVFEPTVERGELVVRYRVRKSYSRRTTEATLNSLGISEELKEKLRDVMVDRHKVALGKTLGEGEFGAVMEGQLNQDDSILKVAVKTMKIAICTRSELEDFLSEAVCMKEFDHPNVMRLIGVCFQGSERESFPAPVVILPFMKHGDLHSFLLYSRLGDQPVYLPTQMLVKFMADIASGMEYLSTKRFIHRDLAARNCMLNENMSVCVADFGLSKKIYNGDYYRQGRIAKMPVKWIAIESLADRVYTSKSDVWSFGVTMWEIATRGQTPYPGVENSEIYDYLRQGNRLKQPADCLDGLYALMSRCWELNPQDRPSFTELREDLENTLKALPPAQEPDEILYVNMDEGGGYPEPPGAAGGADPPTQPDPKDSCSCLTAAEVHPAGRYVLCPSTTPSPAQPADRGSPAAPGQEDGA

CRAF = biological target: T9, CRAF (Homo sapiens, UniProt P04049); assay: CRAF kinase activity assay (western blot); assay type: biochemical
T9 construct: purchased Millipore #17-360
Experimental: Kinase activity assays were performed using BRAF Kinase Assay Kit (#17-359), CRAF Kinase Assay Kit (#17-360) and MAP Kinase/Erk Assay Kit (#17-191), following protocols by the provider (Millipore) with some modifications. In brief, BRAF and CRAF, and MEK1 recombinant proteins were incubated for 15 min with inhibitors, then corresponding substrates were added and incubated for 30 min at 30 °C and assayed via western blot.

FGFR1 = FGFR1 (Homo sapiens, UniProt P11362); assay: KINOMEscan scanEDGE binding; parameters: purchased Eurofins/DiscoverX KINOMEscan (scanEDGE panel); conditions: KinomeEDGE scan, compound at 1 μΜ
BTK = biological target: T10, BTK (Homo sapiens, UniProt Q06187); assay: KINOMEscan scanEDGE binding; conditions: KinomeEDGE scan, compound at 1 μΜ
T10 construct: purchased Eurofins/DiscoverX KINOMEscan (scanEDGE panel)
T10 sequence (Q06187 whole entry): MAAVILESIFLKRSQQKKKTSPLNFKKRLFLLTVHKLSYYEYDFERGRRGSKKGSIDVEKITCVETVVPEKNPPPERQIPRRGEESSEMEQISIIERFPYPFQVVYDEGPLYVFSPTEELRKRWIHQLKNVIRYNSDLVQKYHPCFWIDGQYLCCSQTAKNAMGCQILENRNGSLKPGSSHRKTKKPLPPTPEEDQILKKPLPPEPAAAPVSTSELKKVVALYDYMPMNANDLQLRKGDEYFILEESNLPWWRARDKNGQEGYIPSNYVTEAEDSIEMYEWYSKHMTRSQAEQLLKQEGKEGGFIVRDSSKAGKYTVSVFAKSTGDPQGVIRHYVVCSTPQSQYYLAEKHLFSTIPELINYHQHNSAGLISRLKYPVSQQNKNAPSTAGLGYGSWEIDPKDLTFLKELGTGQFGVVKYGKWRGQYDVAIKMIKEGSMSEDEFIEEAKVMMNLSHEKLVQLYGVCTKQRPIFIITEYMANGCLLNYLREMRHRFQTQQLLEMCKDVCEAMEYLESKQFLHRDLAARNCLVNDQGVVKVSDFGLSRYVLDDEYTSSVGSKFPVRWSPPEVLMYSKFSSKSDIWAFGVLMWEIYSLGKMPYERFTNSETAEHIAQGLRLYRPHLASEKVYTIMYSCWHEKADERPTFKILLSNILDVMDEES

CDK7 = biological target: T11, CDK7 (Homo sapiens, UniProt P50613); assay: KINOMEscan scanEDGE binding; conditions: KinomeEDGE scan, compound at 1 μΜ
T11 construct: purchased Eurofins/DiscoverX KINOMEscan (scanEDGE panel)

[5] = standard of care dose for CML; cited from earlier work
IKK-beta = biological target: T12, IKK-beta (Homo sapiens, UniProt O14920); assay: KINOMEscan scanEDGE binding; conditions: KinomeEDGE scan, compound at 1 μΜ
T12 construct: purchased Eurofins/DiscoverX KINOMEscan (scanEDGE panel)

MKNK2 = biological target: T13, MKNK2 (Homo sapiens, UniProt Q9HBH9); assay: KINOMEscan scanEDGE binding; conditions: KinomeEDGE scan, compound at 1 μΜ
T13 construct: purchased Eurofins/DiscoverX KINOMEscan (scanEDGE panel)

p38-alpha = biological target: T14, p38-alpha (Homo sapiens, UniProt Q16539); assay: KINOMEscan scanEDGE binding; conditions: KinomeEDGE scan, compound at 1 μΜ
T14 construct: purchased Eurofins/DiscoverX KINOMEscan (scanEDGE panel)
T14 sequence (Q16539 whole entry): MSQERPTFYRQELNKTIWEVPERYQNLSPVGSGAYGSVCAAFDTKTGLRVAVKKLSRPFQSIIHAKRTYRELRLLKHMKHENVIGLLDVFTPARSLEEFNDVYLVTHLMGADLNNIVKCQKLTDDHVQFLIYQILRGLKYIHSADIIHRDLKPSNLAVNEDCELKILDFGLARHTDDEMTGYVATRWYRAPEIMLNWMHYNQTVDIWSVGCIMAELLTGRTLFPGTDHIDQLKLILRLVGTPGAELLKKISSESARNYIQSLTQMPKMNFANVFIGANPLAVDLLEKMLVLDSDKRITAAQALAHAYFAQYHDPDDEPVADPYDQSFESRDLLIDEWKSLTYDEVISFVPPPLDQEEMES

CDK9 = biological target: T15, CDK9 (Homo sapiens, UniProt P50750); assay: KINOMEscan scanEDGE binding; conditions: KinomeEDGE scan, compound at 1 μΜ
T15 construct: purchased Eurofins/DiscoverX KINOMEscan (scanEDGE panel)
T15 sequence (P50750 whole entry): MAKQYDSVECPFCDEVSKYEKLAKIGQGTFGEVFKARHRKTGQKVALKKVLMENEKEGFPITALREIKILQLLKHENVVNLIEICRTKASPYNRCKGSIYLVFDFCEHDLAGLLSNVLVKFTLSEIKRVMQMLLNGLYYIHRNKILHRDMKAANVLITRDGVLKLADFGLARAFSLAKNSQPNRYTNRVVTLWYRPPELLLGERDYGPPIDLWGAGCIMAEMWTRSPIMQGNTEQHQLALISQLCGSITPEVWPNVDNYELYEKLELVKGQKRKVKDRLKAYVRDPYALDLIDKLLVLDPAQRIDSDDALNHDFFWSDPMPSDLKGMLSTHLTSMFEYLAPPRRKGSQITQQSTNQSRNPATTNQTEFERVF

FGFR3 = biological target: T16, FGFR3 (Homo sapiens, UniProt P22607); assay: KINOMEscan scanEDGE binding; conditions: KinomeEDGE scan, compound at 1 μΜ
T16 construct: purchased Eurofins/DiscoverX KINOMEscan (scanEDGE panel)
T16 sequence (P22607 23-806): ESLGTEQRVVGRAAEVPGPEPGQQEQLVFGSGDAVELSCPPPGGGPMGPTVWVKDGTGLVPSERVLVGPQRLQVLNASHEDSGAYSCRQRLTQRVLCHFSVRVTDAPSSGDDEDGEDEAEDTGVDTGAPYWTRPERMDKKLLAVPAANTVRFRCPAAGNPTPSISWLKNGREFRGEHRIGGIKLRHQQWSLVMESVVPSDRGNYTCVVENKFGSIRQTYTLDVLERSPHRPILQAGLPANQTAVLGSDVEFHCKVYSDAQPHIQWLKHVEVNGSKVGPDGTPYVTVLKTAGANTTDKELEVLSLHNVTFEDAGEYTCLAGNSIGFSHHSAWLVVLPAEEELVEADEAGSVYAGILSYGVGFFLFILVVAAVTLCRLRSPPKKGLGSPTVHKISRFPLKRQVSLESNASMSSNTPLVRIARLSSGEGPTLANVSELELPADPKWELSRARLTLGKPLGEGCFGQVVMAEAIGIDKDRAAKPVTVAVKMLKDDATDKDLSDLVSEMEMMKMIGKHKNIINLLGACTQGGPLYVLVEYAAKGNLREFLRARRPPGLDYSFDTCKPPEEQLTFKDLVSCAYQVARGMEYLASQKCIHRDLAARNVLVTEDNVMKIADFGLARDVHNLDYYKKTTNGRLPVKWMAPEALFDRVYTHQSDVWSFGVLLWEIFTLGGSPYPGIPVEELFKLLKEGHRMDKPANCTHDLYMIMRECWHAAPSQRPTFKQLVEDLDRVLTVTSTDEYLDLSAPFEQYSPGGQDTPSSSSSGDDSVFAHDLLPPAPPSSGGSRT

BRAF^V600E, sequence (P15056 whole entry V600E): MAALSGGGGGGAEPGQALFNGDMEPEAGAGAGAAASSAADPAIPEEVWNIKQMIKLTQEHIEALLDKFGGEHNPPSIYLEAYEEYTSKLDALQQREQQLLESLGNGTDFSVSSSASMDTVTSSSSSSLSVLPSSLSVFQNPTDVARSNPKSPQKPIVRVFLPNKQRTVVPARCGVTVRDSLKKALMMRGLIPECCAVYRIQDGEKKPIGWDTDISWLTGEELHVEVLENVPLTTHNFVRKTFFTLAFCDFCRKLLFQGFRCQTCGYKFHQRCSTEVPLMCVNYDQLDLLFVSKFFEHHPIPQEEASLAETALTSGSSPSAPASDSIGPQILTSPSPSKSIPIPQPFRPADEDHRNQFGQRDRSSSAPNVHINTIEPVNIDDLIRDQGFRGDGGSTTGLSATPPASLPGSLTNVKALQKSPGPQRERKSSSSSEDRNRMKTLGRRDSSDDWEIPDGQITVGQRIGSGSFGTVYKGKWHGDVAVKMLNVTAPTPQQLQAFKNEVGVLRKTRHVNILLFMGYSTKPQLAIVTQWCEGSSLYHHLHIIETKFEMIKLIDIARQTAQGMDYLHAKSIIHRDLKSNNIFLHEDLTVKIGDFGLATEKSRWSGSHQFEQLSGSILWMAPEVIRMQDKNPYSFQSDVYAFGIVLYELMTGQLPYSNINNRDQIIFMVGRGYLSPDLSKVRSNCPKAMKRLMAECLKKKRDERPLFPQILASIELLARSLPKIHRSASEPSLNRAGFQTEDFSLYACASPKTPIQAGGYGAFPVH

IC50 (BRAF^V600E): 10 nM | IC50 (KIT): 548 ± 21 nM | % Ctrl ACVR1B (ACVR1B): 0.4 % Ctrl | reduction of inhibitory activity on FLT3 compared to Ponatinib (FLT3): tenfold | IC50 (PDFGRα): 8.3 ± 1.5 nM | % Ctrl ABL1(T315I)-phosphorylated [3]: 3.5 % Ctrl | IC50 (ABL1): 8.4 ± 0.3 nM
Structure (SMILES): Cc1ccc(C(=O)Nc2ccc(CNCCN3CCOCC3)c(C(F)(F)F)c2)cc1C#Cc1cnc2cccnn12 [PHI1]
IC50 [1]: 1890 nM | IC50 [2]: 6800 nM

Structure (SMILES): Cc1ccc(C(=O)Nc2ccc(CN3CCN(C)CC3)c(C(F)(F)F)c2)cc1C#Cc1cnc2cccnn12 [Ponatinib, 3-[2-(imidazo[1,2-b]pyridazin-3-yl)ethynyl]-4-methyl-N-{4-[(4-methylpiperazin-1-yl)methyl]-3-(trifluoromethyl)phenyl}benzamide]
% Ctrl JAK2(JH1domain-catalytic) [4]: 9.5 % Ctrl | % Ctrl EGFR(L858R) (EGFR(L858R)): 19 % Ctrl | % Ctrl AXL (AXL): 14 % Ctrl | inhibition of CRAF kinase activity (in words) (CRAF): potently inhibited | % Ctrl FGFR1 (FGFR1): 0.15 % Ctrl | % Ctrl BTK (BTK): 22 % Ctrl | % Ctrl CDK7 (CDK7): 6.2 % Ctrl | elimination half-life [5]: > 24 h | maximum plasma levels [5]: ~ 100 nM | % Ctrl IKK-beta (IKK-beta): 1.4 % Ctrl | % Ctrl MKNK2 (MKNK2): 0.6 % Ctrl | % Ctrl p38-alpha (p38-alpha): 0 % Ctrl | % Ctrl CDK9 (CDK9): 28 % Ctrl | % Ctrl FGFR3 (FGFR3): 0.9 % Ctrl
